In brackets after ≈: the same amount, converted by molar mass. Like-named read-outs stand apart in the source and are kept apart here.
Key:
[1] = tested on: γ-GTP; test: Difference in reactivity with γ-GTPs derived from various sources (human serum, porcine, bovine); assay type: biochemical; details: for Difference between max. and min. activity values: human serum, porcine and bovine samples, relative values, Comparative Example 1 = 100
Description: (§1) As samples, there were used human serum and 7% aqueous bovine albumin solutions containing γ-GTP derived from porcine kidney or bovine kidney (hereinafter abbreviated as parcine sample and bovine sample, respectively).
(§2) To 50 μl of each sample was added 2.0 ml of the buffer solution .circle.1 , followed by preincubation at 37° C. for 3 minutes, and 0.5 ml of the substrate solution .circle.2 was added. After sufficient mixing, the resulting mixture was allowed to stand for 1 minute, after which the increase rate of absorbance at 410 nm was measured, and the γ-GTP activity value (IU/l) in the sample was calculated from the molecular absorption coefficient (7.6×10^6 cm^2 /mol) of 3-hydroxymethyl-4-nitroaniline generated.
as §2, with “(7.3×10^6” for “(7.6×10^6”, “3-(β-hydroxyethyl)-4-nitroaniline” for “3-hydroxymethyl-4-nitroaniline”
as §2, with “(8.8×10^6” for “(7.6×10^6”, “p-nitroaniline” for “3-hydroxymethyl-4-nitroaniline”
as §2, with “subdrate” for “substrate”, “([…]” for “(7.6×10^6 cm^2”, “3-carboxy-4-nitroaniline” for “3-hydroxymethyl-4-nitroaniline”
In Table 1, the values of Comparative Example 2 and Examples 5 and 6 are relative γ-GTP activity values taking those of Comparative Example 1 as 100. The γ-GTP activity values (IU/l) were calculated from an absorbance change (ΔE/5 min) at 410 nm for 5 minutes after initiation of the reaction.

[2] = Solubility of the substrates in reagent solutions; assay type: physicochemical; details: pH 8.2, reagent solution (buffer:substrate solution 4:1)
Source text: In Table 2 are shown the solubility of the substrates for measuring γ-GTP activity used in Examples 5 and 6 and Comparative Examples 1 and 2 in reagent solutions (reagent solutions being obtained by mixing each buffer solution and each substrate solution in the ratio of 4:1), and the results of stability test on the substrate solutions in the individual cases.

[3] = target: T1, γ-GTP (human serum) (Homo sapiens, UniProt P19440); test: Measurement of γ-GTP activity with the substrate, human serum sample (rate assay, 410 nm); assay type: biochemical; details: relative to Comparative Example 1 taken as 100, 37° C., 5 min
T1 construct: As samples, there were used human serum; from tissue; host or cells: human serum
Description: (§3) Measurement of γ-GTP activity
(§4) 100 Millimols of tris(hydroxymethyl)aminomethane and 60 mmols of glycylglycine were added in 800 ml of deionized water, and pH of its solution was adjusted to 8.2 (at 25° C.) with hydrochloric acid, after which the resulting solution was made up to 1 liter with deionized water.
(§5) In deionized water was dissolved 15 mmols of the γ-L-glutamyl-3-hydroxymethyl-4-nitroanilide obtained in Example 1 to make a total volume of 1 liter.
as §1, §2
(§6) 100 mmols of tris(hydroxymethyl)aminomethane and 60 mmols of glycylglycine were added in 800 ml of deionized water, and pH of its solution was adjusted to 8.2 (at 25° C.) with hydrochloric acid, after which the resulting solution was made up to 1 liter with deionized water.
(§7) In deionized water was dissolved 15 mmols of the γ-L-glutamyl-3-(β-hydroxyethyl)-4-nitroanilide obtained in Example 3 to make a total volume of 1 liter.
(§8) The same samples as in Example 5 were used.
as §2, with “(7.3×10^6” for “(7.6×10^6”, “3-(β-hydroxyethyl)-4-nitroaniline” for “3-hydroxymethyl-4-nitroaniline”, “generated. […]” for “generated.”
as §2, with “(8.8×10^6” for “(7.6×10^6”, “p-nitroaniline” for “3-hydroxymethyl-4-nitroaniline”, “generated. […]” for “generated.”

[4] = target: T2, γ-GTP derived from porcine kidney (Sus scrofa, UniProt P20735); test: Measurement of γ-GTP activity with the substrate, porcine sample (rate assay, 410 nm); assay type: biochemical; details: relative to Comparative Example 1 taken as 100, 37° C., 5 min
T2 construct: γ-GTP derived from porcine kidney or bovine kidney; from tissue; host or cells: porcine kidney
Description: as §3, §4, §5, §1, §2, §6, §7, §8
as §2, with “(7.3×10^6” for “(7.6×10^6”, “3-(β-hydroxyethyl)-4-nitroaniline” for “3-hydroxymethyl-4-nitroaniline”, “generated. […]” for “generated.”
as §2, with “(8.8×10^6” for “(7.6×10^6”, “p-nitroaniline” for “3-hydroxymethyl-4-nitroaniline”, “generated. […]” for “generated.”

[5] = target: T3, γ-GTP derived from bovine kidney (Bos taurus, UniProt G3N2D8); test: Measurement of γ-GTP activity with the substrate, bovine sample (rate assay, 410 nm); assay type: biochemical; details: relative to Comparative Example 1 taken as 100, 37° C., 5 min
T3 construct: γ-GTP derived from porcine kidney or bovine kidney; from tissue; host or cells: bovine kidney
Description: as §3, §4, §5, §1, §2, §6, §7, §8
as §2, with “(7.3×10^6” for “(7.6×10^6”, “3-(β-hydroxyethyl)-4-nitroaniline” for “3-hydroxymethyl-4-nitroaniline”, “generated. […]” for “generated.”
as §2, with “(8.8×10^6” for “(7.6×10^6”, “p-nitroaniline” for “3-hydroxymethyl-4-nitroaniline”, “generated. […]” for “generated.”

[6] = background statement, cited from earlier work
[7] = tested on: γ-GTP (porcine kidney); details: reported by Leslie M. Shaw (Clinical Chemistry, 23, 79 (1977)); cited from earlier work
[8] = target: T4, γ-GTP (human sera) (Homo sapiens, UniProt P19440); test: Measurement of γ-GTP activity in human sera with Hitachi automatic analyzer Model 7150 (precision, correlation); assay type: biochemical; details: for Average values (measured values of human sera): n=50 human sera; for Average / Coefficient of variation (C.V.) / Maximum / Minimum: within-run precision
T4 construct: heavy and light chain from one precursor), not purified
Description: (§9) The buffer solution prepared in Example 5 was used.
(§10) In deionized water was dissolved 10 mmols of the γ-L-glutamyl-3-hydroxymethyl-4-nitroanilide obtained in Example 4 to make a total volume of 1 liter.
Fifty human sera were used as samples.
The buffer solution prepared in Comparative Example 2 was used.
The substrate solution prepared in Comparative Example 2 was used.
The same samples as in Example 7 were used.
Measurement was carried out under the same conditions as in Example 7, except that among CHEMISTRY PARAMETERS in Table 4, R1 VOLUME was changed to [320][100][NO], […] to [80][20][NO], and K FACTOR to 7123 (ε=9.5).
0.125M Tris-HCL buffer (pH 7.8, at 37° C., containing 96 mM glycylglycine and 13 mM magnesium chloride).
A 0.1N hydrochloric acid solution containing 20 mM of γ-L-glutamyl-4-nitroanilide.
Measurement was carried out under the same conditions as in Example 7, except that among CHEMISTRY PARAMETERS in Table 4, K FACTOR was changed to 6835 (ε=9.90).
In FIG. 1 is shown the correlation of the values measured for the individual human sera in Example 7 with those in Comparative Example 3. The coefficient of correlation, the regression equation, and the like, obtained by statistical processing, etc. are shown below.
In FIG. 2 is shown the correlation of the values measured for the individual human sera in Example 7 with those in Comparative Example 4. The coefficient of correlation, the regression equation, and the like, obtained by statistical processing, etc. are shown below.

[9] = target: T1, γ-GTP (human serum); details: reported by Leslie M. Shaw (Clinical Chemistry, 23, 79 (1977)); cited from earlier work
[10] = target: T2, γ-GTP derived from porcine kidney; test: Calibration curve linearity with γ-GTP derived from porcine kidney in 7% aqueous bovine albumin solution; assay type: biochemical; details: 7% aqueous bovine albumin solution containing porcine kidney γ-GTP
Description: as §9, §10

[11] = tested on: γ-GTP (bovine kidney); test: Km value, γ-GTP from bovine kidney; assay type: biochemical
Source text: (§11) In Table 3 are shown the results of measuring, by a conventional method, Km values of γ-L-glutamyl-3-hydroxymethyl-4-nitroanilide, which is a compound of this invention, for each of γ-GTPs derived from human serum, porcine kidney and bovine kidney.

[12] = tested on: γ-GTP (porcine kidney); test: Km value, γ-GTP from porcine kidney; assay type: biochemical
Source text: as §11
In Table 3 are also shown, for reference, Km values of γ-L-glutamyl-3-carboxy-4-nitroanilide and γ-L-glutamyl-p-nitroanilide reported by Leslie M. Shaw (Clinical Chemistry, 23, 79 (1977)).

[13] = suitable pH range for determining γ-GTP activity; background statement; cited from earlier work

T1 sequence (P19440 1-380 limits assumed): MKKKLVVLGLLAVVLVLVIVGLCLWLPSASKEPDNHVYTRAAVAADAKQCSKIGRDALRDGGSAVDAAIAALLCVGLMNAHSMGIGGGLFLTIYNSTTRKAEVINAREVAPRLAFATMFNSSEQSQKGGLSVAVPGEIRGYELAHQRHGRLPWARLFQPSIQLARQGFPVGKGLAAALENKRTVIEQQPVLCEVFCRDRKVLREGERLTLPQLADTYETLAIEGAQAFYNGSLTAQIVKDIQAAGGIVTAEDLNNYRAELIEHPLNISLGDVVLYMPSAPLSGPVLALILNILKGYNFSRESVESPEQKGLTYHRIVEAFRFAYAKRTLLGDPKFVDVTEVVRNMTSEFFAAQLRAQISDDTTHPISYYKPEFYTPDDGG
T1 sequence (P19440 381-569 limits assumed): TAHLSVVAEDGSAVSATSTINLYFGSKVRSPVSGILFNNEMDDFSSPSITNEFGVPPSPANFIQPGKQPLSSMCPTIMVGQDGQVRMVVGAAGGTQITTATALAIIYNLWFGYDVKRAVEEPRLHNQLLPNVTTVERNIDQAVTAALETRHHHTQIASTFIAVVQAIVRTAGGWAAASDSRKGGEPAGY
T4 sequence (P19440 whole entry): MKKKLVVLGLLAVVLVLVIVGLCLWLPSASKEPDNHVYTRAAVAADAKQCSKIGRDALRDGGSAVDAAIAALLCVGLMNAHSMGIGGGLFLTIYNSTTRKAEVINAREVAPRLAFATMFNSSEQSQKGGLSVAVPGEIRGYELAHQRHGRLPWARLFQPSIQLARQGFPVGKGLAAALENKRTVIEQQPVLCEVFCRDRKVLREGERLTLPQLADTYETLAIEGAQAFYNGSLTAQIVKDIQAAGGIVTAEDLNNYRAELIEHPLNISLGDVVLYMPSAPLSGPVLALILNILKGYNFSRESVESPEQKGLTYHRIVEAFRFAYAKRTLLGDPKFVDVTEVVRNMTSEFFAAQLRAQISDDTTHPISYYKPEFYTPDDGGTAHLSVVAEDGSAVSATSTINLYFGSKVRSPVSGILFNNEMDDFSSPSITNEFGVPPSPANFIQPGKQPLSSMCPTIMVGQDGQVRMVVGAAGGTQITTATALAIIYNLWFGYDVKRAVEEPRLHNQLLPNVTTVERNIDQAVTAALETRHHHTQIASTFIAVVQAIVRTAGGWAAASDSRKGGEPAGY
T2 sequence (P20735 1-379 limits assumed): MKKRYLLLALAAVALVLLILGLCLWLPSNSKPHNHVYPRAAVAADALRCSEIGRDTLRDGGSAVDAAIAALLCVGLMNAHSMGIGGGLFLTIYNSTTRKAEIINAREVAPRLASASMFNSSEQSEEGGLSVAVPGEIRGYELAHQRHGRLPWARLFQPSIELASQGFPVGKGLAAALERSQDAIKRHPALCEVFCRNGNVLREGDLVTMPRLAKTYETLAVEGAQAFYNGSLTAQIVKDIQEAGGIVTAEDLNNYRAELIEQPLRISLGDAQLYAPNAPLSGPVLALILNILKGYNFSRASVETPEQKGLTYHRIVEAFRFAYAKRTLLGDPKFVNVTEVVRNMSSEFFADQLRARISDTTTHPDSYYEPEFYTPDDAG
T2 sequence (P20735 380-568 limits assumed): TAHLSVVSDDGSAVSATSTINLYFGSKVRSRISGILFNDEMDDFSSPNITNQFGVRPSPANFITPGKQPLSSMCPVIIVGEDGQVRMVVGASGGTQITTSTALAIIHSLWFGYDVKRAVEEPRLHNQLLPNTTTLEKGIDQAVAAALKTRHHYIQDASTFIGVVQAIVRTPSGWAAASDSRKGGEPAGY
T3 sequence (G3N2D8 1-379 limits assumed): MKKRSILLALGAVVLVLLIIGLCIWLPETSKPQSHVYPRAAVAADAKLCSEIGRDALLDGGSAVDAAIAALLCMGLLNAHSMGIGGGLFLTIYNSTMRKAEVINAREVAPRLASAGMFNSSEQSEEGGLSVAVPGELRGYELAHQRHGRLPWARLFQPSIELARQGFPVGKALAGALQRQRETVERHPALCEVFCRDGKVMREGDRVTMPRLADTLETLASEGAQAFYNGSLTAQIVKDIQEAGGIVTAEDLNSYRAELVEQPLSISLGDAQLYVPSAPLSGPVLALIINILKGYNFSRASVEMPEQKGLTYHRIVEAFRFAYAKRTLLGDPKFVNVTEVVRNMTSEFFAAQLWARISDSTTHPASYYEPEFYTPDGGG
T3 sequence (G3N2D8 380-568 limits assumed): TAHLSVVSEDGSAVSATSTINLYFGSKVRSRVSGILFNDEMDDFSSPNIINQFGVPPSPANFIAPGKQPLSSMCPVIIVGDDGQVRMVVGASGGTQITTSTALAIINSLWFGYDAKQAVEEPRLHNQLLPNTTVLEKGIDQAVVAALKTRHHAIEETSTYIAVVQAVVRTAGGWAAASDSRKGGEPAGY

SMILES | Solubility ([2]; 5° C.) [µM] | relative γ-GTP activity value, human serum [3] | relative γ-GTP activity value, porcine sample [4] | relative γ-GTP activity value, bovine sample [5] | Average values (measured values of human sera) [8] | Difference between max. and min. activity values [1] | solubility and stability after dissolution versus γ-glutamyl-p-nitroanilide (in words) [6] | Km [7] [µM] | Km [9] [µM] | further results
N[C@@H](CCC(=O)Nc1ccc([N+](=O)[O-])c(CCO)c1)C(=O)O [γ-L-glutamyl-3-(β-hydroxyethyl)-4-nitroanilide] | 10000 (≈ 3.11 mg/mL) | 95 | 87 | 85 | – | 10 | – | – | – | –
N[C@@H](CCC(=O)Nc1ccc([N+](=O)[O-])c(S(=O)(=O)O)c1)C(=O)O [γ-L-glutamyl-3-sulfo-4-nitroanilide] | – | – | – | – | – | – | much superior | – | – | –

Continued, in another order:

Solubility ([2]; 5° C.) [µM] | relative γ-GTP activity value, human serum [3] | relative γ-GTP activity value, porcine sample [4] | relative γ-GTP activity value, bovine sample [5] | Average values (measured values of human sera) [8] | SMILES | Difference between max. and min. activity values [1] | solubility and stability after dissolution versus γ-glutamyl-p-nitroanilide (in words) [6] | Km [7] [µM] | Km [9] [µM] | further results
≥ 100000 | 103 | 127 | 94 | 106.72 | N[C@@H](CCC(=O)Nc1ccc([N+](=O)[O-])c(C(=O)O)c1)C(=O)O [γ-L-glutamyl-3-carboxy-4-nitroanilide, reference compound] | 33 | much superior | 1630 | 1190 | difference in reactivity with γ-GTPs derived from various sources (in words) ([1]; various sources of γ-GTP): vary more widely in reactivity with γ-GTPs derived from various sources
≥ 100000 | 148 | 139 | 151 | 115.94 | N[C@@H](CCC(=O)Nc1ccc([N+](=O)[O-])c(CO)c1)C(=O)O [γ-L-glutamyl-3-hydroxymethyl-4-nitroanilide] | 12 | – | – | – | linearity of calibration curve, upper limit [10]: about 6400 IU/l; Coefficient of correlation ([8]; Example 7 vs Comparative Example 3, n=50 human sera): 0.9998; Coefficient of correlation ([8]; Example 7 vs Comparative Example 4, n=50 human sera): 0.9998; within-run precision (in words) ([8]; Table 5): good precision; Average ([8]; sample 1, n=40): 66.4 IU/l; Coefficient of variation (C.V.) ([8]; sample 1, n=40): 0.95; Maximum ([8]; sample 1, n=40): 68 IU/l; Minimum ([8]; sample 1, n=40): 66 IU/l; Average ([8]; sample 2, n=40): 137.0 IU/l; Coefficient of variation (C.V.) ([8]; sample 2, n=40): 0.83; Maximum ([8]; sample 2, n=40): 139 IU/l; Minimum ([8]; sample 2, n=40): 134 IU/l; Km [11]: 670 µM; Km [12]: 670 µM
– | 100 | 100 | 100 | 115.02 | N[C@@H](CCC(=O)Nc1ccc([N+](=O)[O-])cc1)C(=O)O [γ-L-glutamyl-p-nitroanilide, reference compound] | – | – | 1870 | 1330 | stability (in words) ([6]; suitable pH range for dissolution): unstable; Solubility ([2]; 37° C.): 5000 µM (≈ 1.34 mg/mL); solubility (in words) [13]: slightly soluble
